Experimental data published in US20200289482A1, “CYSTIC FIBROSIS TRANSMEMBRANE CONDUCTANCE REGULATOR MODULATORS FOR TREATING AUTOSOMAL DOMINANT POLYCYSTIC KIDNEY DISEASE” (The Johns Hopkins University, priority 2017, published 2020).

Columns and labels:
NHE3 = NHE3 expression in PN cells; assay type: cell-based, mouse; details: PN cells treated with VX-809 vs PN cells
Description: FIG. 14A and FIG. 14B show NHE3 expression in PN cells treated with VX-809.
The expression and activity of […] were evaluated. Specifically, NHE3 expression was evaluated in PN cells that were treated with VX-809. […] was also studied in PN, PH, and PN cells treated with VX-809. […] Next, NHE3 activity was evaluated in PN/PH cells or PN cells treated with VX-809. NHE3 activity was increased in PN cells treated with VX-809, as compared to PN cells (FIG. 16A). NHE3 activity was higher in control PH cells than in PN cells (FIG. 16B). […] NHE3 activity was increased in both VX-809 treated PN cells and control PH cells, as compared to control PN cells (FIG. 16C).

Hsp40 = experiment: Western blot of Hsp40 in kidney tissue lysates; assay type: in vivo, mouse; details: cyst induced pkd−/− mice, VX-809 30 mg/kg BW
Description: FIG. 7A, FIG. 7B, FIG. 7C, FIG. 7D, FIG. 7E, and FIG. 7F show chaperone expression is altered in mice by VX-809. (FIG. 7A-FIG. 7B) Representative Western blot images of HSP27, 70, 90 and HSP40 in lysates of kidney tissue from no cyst induced (ND), cyst induced with Doxycycline (D) or cyst induced pkd−/− mice treated with VX-809 (D+VX-809) 30 mg/kg BW. (FIG. 7C, FIG. 7D, FIG. 7E, and FIG. 7F) Columns represent averages±standard errors of HSP27, 70, 90 and HSP40 expression. Data were analyzed by non-parametric t-test. n=4 for each treated and control groups. Black lines between lanes represent representative experiments from the same gel. *P<0.05; **P<0.01; To facilitate their growth in the kidney, cysts have developed an altered network of proteins that most likely serves to protect them from stress (34). Next, it was determined whether VX-809 would alter the levels of Hsps in pkd−/− mice and in PN cells. […] Hsp 27, 70 and 90 are all elevated in cystic kidneys compared to normal controls. […] There is no change in Hsp 40. […] Both sets of data are consistent with an alteration in the heat shock response to cyst growth.

PC2 = experiment: Western blot of PC2 expression; assay type: cell-based, mouse; details: PN cells, endogenous PC2
Description: FIG. 6A and FIG. 6B show PC2 expression is unchanged by VX-809. (FIG. 6A) Western blot showing expression of PC2 in treated or control cells. (FIG. 6B) Columns represent the means±SEM of the PC2 expression. The data were analyzed by non-parametric t-test. The experiment was repeated six (control) or seven times;
PC2 is a 968-amino acid protein with an approximate molecular weight of 100 kDa in its monomeric form. To determine whether VX-809 affects PC2 protein expression, western blot experiments were conducted on PN cells to determine the resting levels of endogenous PC2.

[1] = system: intracellular Ca2+ in PN cells; experiment: Fura-2 Ca2+ imaging assay; assay type: cell-based, mouse; details: VX-809 10 μM 16 h
Description: FIG. 5A, FIG. 5B, FIG. 5C, FIG. 5D, FIG. 5E, and FIG. 5F show intracellular Ca2+ (F340/F380) levels obtained by ratiometric Fura-2 AM analysis of PN cells treated with VX-809 (10 μM) for 16 h. (FIG. 5A) Representative traces of intracellular Ca2+ release in response to ATP (100 μM) in PN cells and cells treated with VX-809 (10 μM). (FIG. 5B, FIG. 5C) Graphs summarizing resting calcium levels (FIG. 5B) and the average amplitude of Ca2+ release (FIG. 5C) in response to ATP. (FIG. 5D) Representative traces of ER Ca2+ release in response to thapsigargin (4 μM) in PN cells treated with VX-809. (FIG. 5E, FIG. 5F) Resting calcium levels (FIG. 5E) and the average amplitude of Ca2+ release (FIG. 5F) in response to thapsigargin. Amplitude was measured as the […] of the signal base to peak Δf/f. Significance between the two groups was analyzed using Student's t-test, n=4-5). *P<0.05, ***P<0.001.
Ca^2+-dependent signal transduction is associated with cyst formation (26), (29). […] To address the effect of VX-809 on this Ca^2+ release, the cells were treated with thapsigargin, a specific inhibitor of the ER Ca^2+-ATPase which, when applied, allows Ca^2+ to leak out of the ER through independent Ca^2+-permeable pathways (33). A small effect of VX-809 on resting Ca^2+ was observed.
On Day 5 of cell culture, the cells were loaded with the cell-permeant acetoxymethyl (AM) ester of the calcium indicator fura-2 (fura-2/AM) at 37° C. for 90 min. Measurements were made on a Zeiss inverted microscope equipped with a Sutter Lambda 10-2 controller and filter wheel assembly. For ATP stimulation experiments, the cells were exposed to 100 μM ATP diluted in the imaging buffer. A Zeiss FluorArc mercury lamp was used to excite the cells at 340 and 380 nm, and the emission response was measured at 510 nm. Cell fluorescence was measured in response to excitation for 1000 ms at 340 nm and 200 ms at 380 nm once every 4 s. Image acquisition, image analysis, and filter wheel control were performed with IPLab software (see (25)).

lumacaftor [VX-809]
NHE3 expression (NHE3): significantly increased | Hsp40 expression in kidneys (Hsp40): no change | PC2 expression (PC2): no effect on PC2 expression | resting Ca2+ [1]: small reduction in resting Ca^2+ | intracellular Ca2+ movement in response to ATP ([1]; ATP 100 μM): no effect on intracellular Ca^2+ movement in response to ATP | thapsigargin-induced release of Ca2+ from the ER ([1]; thapsigargin 4 μM): dramatically reduced the thapsigargin-induced release of Ca^2+ from the ER
